Test results taken from patent US7601688B2, “Methods of reducing hypoglycemic episodes in the treatment of diabetes mellitus” (Biocon Limited, priority 2001, dated 2009).

Experiments:
[1] = Dose titration study of oral HIM2 vs. insulin lispro: glucodynamics; format: in vivo, human; details: adult type 1 diabetes patients; for Day 3 - 2 Hour Post-prandial Glucose, Breakfast (Mean ± SEM) / Day 3 - 2 Hour Post-prandial Glucose, Dinner (Mean ± SEM) / Day 3 - 2 Hour Post-prandial Glucose, Evening Snack (Mean ± SEM) / Day 3 - 2 Hour Post-prandial Glucose, Lunch (Mean ± SEM): basal CSII, HIM2 p.o., Lispro s.c., titrated doses; for Day 3 - 2 Hour Post-prandial Glucose, Breakfast (Mean ± SEM): after breakfast, p = 0.28; for Day 3 - 2 Hour Post-prandial Glucose, Dinner (Mean ± SEM): after dinner, p = 0.07; for Day 3 - 2 Hour Post-prandial Glucose, Evening Snack (Mean ± SEM): after evening snack, p = 0.24; for Day 3 - 2 Hour Post-prandial Glucose, Lunch (Mean ± SEM): after lunch, p = 0.29; for Day 3 - Daily Mean (±SEM) Plasma Glucose AUC: total 24-hour AUC divided by 1440 (time-adjusted), p = 0.46; for Patients with average 2-hour post-prandial glucose levels consistent with pre-study values (range 80-250 mg/dL): Fisher's exact test p=0.42
Procedure: A 3-day inpatient dosing period was performed.
Assays: Plasma glucose: glucose oxidase-based enzymatic assay. Plasma insulin: RIA method (Linco Research, St. Charles, Mo.). […] (2) Daily mean plasma glucose on Day 3. (3) Postprandial glucose at 2 hours during Day 3. (4) Number of rescue interventions (hypoglycemia).

[2] = in vivo
Procedure: Study Objectives: To evaluate whether HIM2 doses, when titrated, are able to maintain 2-hour post-prandial blood glucose levels consistent with the pre-study range between 80-250 mg/dL as compared to insulin lispro and to evaluate the safety profile for HIM2. Patient Population: Adult patients with type 1 diabetes participated in the study. […] Design and Methods: A multicenter, dose titration, randomized, insulin lispro controlled, parallel, open-label study was conducted. A 2-day inpatient period was provided to establish optimal basal rate. A 5-7 day run-in period (maintained optimized basal rate; insulin requirements, episodes of hypoglycemia or hyperglycemia, dietary intake and physical activity recorded) was provided. A 3-day inpatient dosing period was performed. Carbohydrate intake was individualized (40% of total calories, equally divided among 4 meals during each study day). Basal insulin (CSII) was unchanged throughout the 3-day dosing period. Initial Doses: HIM2 0.25 mg/kg (7.2 U/kg; 1 mg of insulin=28.7 units of insulin), p.o., in a formulation shown in Table 1, 10 minutes prior to meal, HIM2 0.125 mg/kg (3.6 U/kg; 1 mg of insulin=28.7 units of insulin), p.o., in a formulation shown in Table 1, 120 minutes post meal, and Insulin lispro (commercially available from Eli Lilly & Co., Indianapolis, Ind.) (hereinafter “Lispro”), 0.1 U/kg (0.003 mg/kg; 1 mg of insulin=28.7 units of insulin), s.c., 15 minutes prior to meal. Doses were adjusted as necessary with the next scheduled dose according to the dose titration rules described in Table 2; however, no dose titration was allowed during study day 3.
Assays: Plasma glucose: glucose oxidase-based enzymatic assay. Plasma insulin: RIA method (Linco Research, St. Charles, Mo.). Efficacy Variables: The following variables were evaluated to determine efficacy of HIM2 compared to Lispro. (1) Percentage of patients able to maintain 2-hour postprandial blood glucose levels consistent with pre-study values between 80-250 mg/dL on Day 3 (HIM2 compared to insulin lispro). (2) Daily mean plasma glucose on Day 3. (3) Postprandial glucose at 2 hours during Day 3. (4) Number of rescue interventions (hypoglycemia). Safety Variables: Adverse events, vital signs, clinical chemistry, hematology, urinalysis, and ECG monitoring. Data Analysis: A comparison of proportion of patients within target glucose range (80-250 mg/dL) was analyzed. The daily mean plasma glucose AUC was analyzed using a t-test. The Day 3-2 hour post-prandial glucose was analyzed using a t-test. Comparison of rates for hypoglycemic events was analyzed using glucose 50-60 mg/dL, glucose ≦50 mg/mL, and number of rescue interventions. Demographics: A total of 31 patients were enrolled and analyzed in this study (15 M/16 F).

Q: For Insulin lispro [reference compound], which “Day 3 - 2 Hour Post-prandial Glucose, Breakfast (Mean ± SEM)” value [1] is on record?
A: The value was 158.2 ± 24.3.

Q: What about the “Day 3 - 2 Hour Post-prandial Glucose, Dinner (Mean ± SEM)” value [1] of the same substance?
A: The value was 195.3 ± 20.6.

Q: And the “Day 3 - 2 Hour Post-prandial Glucose, Evening Snack (Mean ± SEM)” value [1]?
A: Its value is 197.9 ± 20.4.

Q: And the “Day 3 - 2 Hour Post-prandial Glucose, Lunch (Mean ± SEM)” value [1]?
A: The value was 202.6 ± 16.1.

Q: What about the “Day 3 - Daily Mean (±SEM) Plasma Glucose AUC” value [1] of the same substance?
A: Its value is 170.6 ± 11.8 mg/dL.

Q: What about the “Patients with average 2-hour post-prandial glucose levels consistent with pre-study values (range 80-250 mg/dL)” value [1] of the same substance?
A: Its value is 83%.

Q: For “Lys^B29-Hexyl-PEG7-Oligomer-Conjugated Insulin [HIM2]”, which “Day 3 - 2 Hour Post-prandial Glucose, Breakfast (Mean ± SEM)” value [1] is on record?
A: Its value is 192.3 ± 19.4.

Q: And the “Day 3 - 2 Hour Post-prandial Glucose, Dinner (Mean ± SEM)” value [1]?
A: The value was 249.0 ± 19.3.

Q: What about the “Day 3 - 2 Hour Post-prandial Glucose, Evening Snack (Mean ± SEM)” value [1] of the same substance?
A: The value was 231.4 ± 18.4.

Q: What about the “Day 3 - 2 Hour Post-prandial Glucose, Lunch (Mean ± SEM)” value [1] of the same substance?
A: Its value is 232.9 ± 21.0.

Q: And the “Day 3 - Daily Mean (±SEM) Plasma Glucose AUC” value [1]?
A: Its value is 182.0 ± 10.0 mg/dL.

Q: What about the “Patients with average 2-hour post-prandial glucose levels consistent with pre-study values (range 80-250 mg/dL)” value [1] of the same substance?
A: Its value is 63%.

Q: And the “Documented serious adverse event for hypoglycemia” value [2]?
A: Its value is “One”.

Q: What about the “Hypoglycemic events that required rescue intervention” value [2] of the same substance?
A: Its value is “significantly lower”.

Q: What about the “Number and frequency of gastrointestinal side effects (primarily unpleasant taste and diarrhea)” value [2] of the same substance?
A: Its value is “occurred more frequently”.

Q: What about the “Number of hypoglycemic events (overall assessment)” value [2] of the same substance?
A: The value was “trend toward fewer events”.
